From patent EP1096933B1, “USE OF AN INHIBITOR OF CYTOCHROME P450 OPTIONALLY COMBINED WITH AN ANTIFUNGAL AGENT FOR TREATING MYCOSES” (priority 1998, dated 2000)
Like-named read-outs stand apart in the source and are kept apart here.

Legend:
Experiment in all cases: growth of strains streaked on Sabouraud agar containing the products
Assay type in all cases: cell-based
[1] = system: Microsporum persicolor; conditions: Nannizzia persicolor, Micro.Persicolor, read-out: % DE CROISSANCE; for activity at 10 µg/mL: 10µg/ml each product; for activity at 1 µg/mL: Econazole 1µg/ml
Protocol: (§1) Ces molécules ont été incorporées dans un milieu gélosé dit de Sabouraud (peptone 10g/l, glucose 10 g/l, gomme agar 15 g/l).
(§2) Des souches de diverses espèces de champignons ont été ensemencées par stries par la méthode de Stires.
(§3) Le pourcentage de croissance a été mesuré au cours du temps, pour des périodes allant jusqu'à 21 jours, pour certaines des souches testées.
(§4) Les quantités de pipéronyl butoxyde, et de cyclopyroxolamine utilisées sont identiques et sont de 10 ou 20 µg/ml dans le cas de l'association entre ces deux composés.
(§5) Dans le cas de l'association entre le pipéronyl butoxyde et l'éconazole, elles sont respectivement de 10 ou 20 µg/ml de pipéronyl butoxyde et de 1 µg/ml d'éconazole.
(§6) Des souches appartenant aux espèces suivantes ont été testées: Microsporum canis, Trichophyton rubrum, Trichophyton interdigitale, Trichophyton mentagrophytes, Microsporum persicolor, Epidermophyton floccosum, Trichophyton violaceum et Trichophyton soudanense.
(§7) L'activité du pipéronyl butoxyde seul a été testée à diverses concentrations, comme indiqué dans le tableau 1 sur le milieu de Sabouraud, dépourvu de tout autre fongicide.

[2] = system: Microsporum canis; conditions: read-out: % DE CROISSANCE; for activity at 1 µg/mL: Micro. Canis
Protocol: as §1, §2, §3, §4, §5, §6, §7

[3] = system: Trichophyton interdigitale; conditions: Tric.Interdigitale, read-out: % DE CROISSANCE
Protocol: as §1, §2, §3, §4, §5, §6, §7

[4] = system: Trichophyton rubrum; conditions: Tric.Rubrum, read-out: % DE CROISSANCE
Protocol: as §1, §2, §3, §4, §5, §6, §7

[5] = system: Trichophyton mentagrophytes; conditions: Tric.Mentagophytes, read-out: % DE CROISSANCE
Protocol: as §1, §2, §3, §4, §5, §6, §7

[6] = system: Trichophyton soudanense; conditions: Tric.Soudanese, read-out: % DE CROISSANCE
Protocol: as §1, §2, §3, §4, §5, §6, §7

[7] = system: Epidermophyton floccosum; conditions: Epid.Flocosum, read-out: % DE CROISSANCE
Protocol: as §1, §2, §3, §4, §5, §6, §7

[8] = system: Trichophyton violaceum; conditions: Tric.Violaceum, read-out: % DE CROISSANCE
Protocol: as §1, §2, §3, §4, §5, §6, §7

[9] = 144 h, J6, 20µg/ml each product
[10] = 240 h, J10, 20µg/ml each product
[11] = 336 h, J14, 20µg/ml each product
[12] = 144 h, J6, 10µg/ml each product
[13] = 240 h, J10, 10µg/ml each product
[14] = 336 h, J14, 10µg/ml each product

What does the source list for `Cc1cc(C2CCCCC2)n(O)c(=O)c1` [Cyclopiroxolamine, cyclopiroxolamine]?
activity at 10 µg/mL ([1]; 0 h, J0): 0%; activity at 10 µg/mL ([1]; 96 h, J4): 0%; activity at 10 µg/mL ([1]; 144 h, J6): 30%; activity at 10 µg/mL ([1]; 240 h, J10): 75%; activity at 10 µg/mL ([1]; 336 h, J14): 100%; activity at 20 µg/mL ([2]; 0 h): 0%; activity at 20 µg/mL ([2]; 96 h): 5%; activity at 20 µg/mL ([2]; 144 h): 20%; activity at 20 µg/mL ([2]; 240 h): 60%; activity at 20 µg/mL ([2]; 336 h): 100%; activity at 20 µg/mL ([3]; 0 h, J0, 20µg/ml each product): 0%; activity at 20 µg/mL ([3]; 96 h, J4, 20µg/ml each product): 5%; activity at 20 µg/mL [3, 9]: 10%; activity at 20 µg/mL [3, 10]: 80%; activity at 20 µg/mL [3, 11]: 90%; activity at 20 µg/mL ([4]; 0 h, J0, 20µg/ml each product): 0%; activity at 20 µg/mL ([4]; 96 h, J4, 20µg/ml each product): 0%; activity at 20 µg/mL [4, 9]: 50%; activity at 20 µg/mL [4, 10]: 80%; activity at 20 µg/mL [4, 11]: 100%; activity at 20 µg/mL ([5]; 0 h, J0, 20µg/ml each product): 0%; activity at 20 µg/mL ([5]; 96 h, J4, 20µg/ml each product): 5%; activity at 20 µg/mL [5, 9]: 60%; activity at 20 µg/mL [5, 10]: 100%; activity at 20 µg/mL [5, 11]: 100%; activity at 10 µg/mL ([6]; 0 h, J0, 10µg/ml each product): 0%; activity at 10 µg/mL ([6]; 96 h, J4, 10µg/ml each product): 0%; activity at 10 µg/mL [6, 12]: 0%; activity at 10 µg/mL [6, 13]: 30%; activity at 10 µg/mL [6, 14]: 60%; activity at 10 µg/mL ([7]; 0 h, J0, 10µg/ml each product): 0%; activity at 10 µg/mL ([7]; 96 h, J4, 10µg/ml each product): 0%; activity at 10 µg/mL [7, 12]: 0%; activity at 10 µg/mL [7, 13]: 85%; activity at 10 µg/mL [7, 14]: 100%; activity at 10 µg/mL ([8]; 0 h, J0, 10µg/ml each product): 0%; activity at 10 µg/mL ([8]; 96 h, J4, 10µg/ml each product): 0%; activity at 10 µg/mL [8, 12]: 40%; activity at 10 µg/mL [8, 13]: 60%; activity at 10 µg/mL [8, 14]: 100%

How did the activity at 1 µg/mL ([1]; 0 h, J0) turn out when `Clc1ccc(COC(Cn2ccnc2)c2ccc(Cl)cc2Cl)cc1` (centres unmarked) [Econazole, éconazole] was run?
The activity at 1 µg/mL was 0%.

And the activity at 1 µg/mL ([1]; 96 h, J4)?
The activity at 1 µg/mL was 0%.

And the activity at 1 µg/mL ([1]; 144 h, J6)?
The activity at 1 µg/mL was 0%.

What about the activity at 1 µg/mL ([1]; 240 h, J10) of the same molecule?
Its activity at 1 µg/mL is 15%.

And the activity at 1 µg/mL ([1]; 336 h, J14)?
Its activity at 1 µg/mL is 50%.

What about the activity at 1 µg/mL ([2]; 0 h, J0, Econazole 1µg/ml) of the same molecule?
Its activity at 1 µg/mL is 0%.

And the activity at 1 µg/mL ([2]; 96 h, J4, Econazole 1µg/ml)?
The activity at 1 µg/mL was 0%.

What about the activity at 1 µg/mL ([2]; 144 h, J6, Econazole 1µg/ml) of the same molecule?
The activity at 1 µg/mL was 10%.

And the activity at 1 µg/mL ([2]; 240 h, J10, Econazole 1µg/ml)?
The activity at 1 µg/mL was 40%.

And the activity at 1 µg/mL ([2]; 336 h, J14, Econazole 1µg/ml)?
Its activity at 1 µg/mL is 80%.

What about the activity at 1 µg/mL ([3]; 0 h, J0, Econazole 1µg/ml) of the same molecule?
The activity at 1 µg/mL was 0%.

And the activity at 1 µg/mL ([3]; 96 h, J4, Econazole 1µg/ml)?
Its activity at 1 µg/mL is 5%.

And the activity at 1 µg/mL ([3]; 144 h, J6, Econazole 1µg/ml)?
Its activity at 1 µg/mL is 5%.

And the activity at 1 µg/mL ([3]; 240 h, J10, Econazole 1µg/ml)?
The activity at 1 µg/mL was 40%.

What about the activity at 1 µg/mL ([3]; 336 h, J14, Econazole 1µg/ml) of the same molecule?
Its activity at 1 µg/mL is 60%.

What about the activity at 1 µg/mL ([4]; 0 h, J0, Econazole 1µg/ml) of the same molecule?
The activity at 1 µg/mL was 0%.

What about the activity at 1 µg/mL ([4]; 96 h, J4, Econazole 1µg/ml) of the same molecule?
The activity at 1 µg/mL was 0%.

What about the activity at 1 µg/mL ([4]; 144 h, J6, Econazole 1µg/ml) of the same molecule?
The activity at 1 µg/mL was 20%.

What about the activity at 1 µg/mL ([4]; 240 h, J10, Econazole 1µg/ml) of the same molecule?
Its activity at 1 µg/mL is 60%.

And the activity at 1 µg/mL ([4]; 336 h, J14, Econazole 1µg/ml)?
Its activity at 1 µg/mL is 70%.

And the activity at 1 µg/mL ([5]; 0 h, J0, Econazole 1µg/ml)?
The activity at 1 µg/mL was 0%.

What about the activity at 1 µg/mL ([5]; 96 h, J4, Econazole 1µg/ml) of the same molecule?
Its activity at 1 µg/mL is 5%.

And the activity at 1 µg/mL ([5]; 144 h, J6, Econazole 1µg/ml)?
Its activity at 1 µg/mL is 10%.

What about the activity at 1 µg/mL ([5]; 240 h, J10, Econazole 1µg/ml) of the same molecule?
Its activity at 1 µg/mL is 30%.

And the activity at 1 µg/mL ([5]; 336 h, J14, Econazole 1µg/ml)?
Its activity at 1 µg/mL is 40%.

And the activity at 1 µg/mL ([6]; 0 h, J0, Econazole 1µg/ml)?
The activity at 1 µg/mL was 0%.

What about the activity at 1 µg/mL ([6]; 96 h, J4, Econazole 1µg/ml) of the same molecule?
Its activity at 1 µg/mL is 0%.

What about the activity at 1 µg/mL ([6]; 144 h, J6, Econazole 1µg/ml) of the same molecule?
Its activity at 1 µg/mL is 0%.

What about the activity at 1 µg/mL ([6]; 240 h, J10, Econazole 1µg/ml) of the same molecule?
The activity at 1 µg/mL was 30%.

What about the activity at 1 µg/mL ([6]; 336 h, J14, Econazole 1µg/ml) of the same molecule?
Its activity at 1 µg/mL is 60%.

And the activity at 1 µg/mL ([7]; 0 h, J0, Econazole 1µg/ml)?
The activity at 1 µg/mL was 0%.

And the activity at 1 µg/mL ([7]; 96 h, J4, Econazole 1µg/ml)?
Its activity at 1 µg/mL is 0%.

What about the activity at 1 µg/mL ([7]; 144 h, J6, Econazole 1µg/ml) of the same molecule?
The activity at 1 µg/mL was 0%.

What about the activity at 1 µg/mL ([7]; 240 h, J10, Econazole 1µg/ml) of the same molecule?
The activity at 1 µg/mL was 5%.

And the activity at 1 µg/mL ([7]; 336 h, J14, Econazole 1µg/ml)?
Its activity at 1 µg/mL is 10%.

What about the activity at 1 µg/mL ([8]; 0 h, J0, Econazole 1µg/ml) of the same molecule?
Its activity at 1 µg/mL is 0%.

And the activity at 1 µg/mL ([8]; 96 h, J4, Econazole 1µg/ml)?
The activity at 1 µg/mL was 0%.

What about the activity at 1 µg/mL ([8]; 144 h, J6, Econazole 1µg/ml) of the same molecule?
The activity at 1 µg/mL was 40%.

And the activity at 1 µg/mL ([8]; 240 h, J10, Econazole 1µg/ml)?
The activity at 1 µg/mL was 60%.

What about the activity at 1 µg/mL ([8]; 336 h, J14, Econazole 1µg/ml) of the same molecule?
The activity at 1 µg/mL was 100%.
